Data from the supplement of paper PMC10307832.

What was measured:
Assay in all cases: relative viability (nuclei count vs DMSO), 5 days (fraction); higher = more cells survive
[1] = compound: C1=CC=C2C(=C1)C=CC(=C2SSC3=C(C=CC4=CC=CC=C43)O)O [IPA-3] + CS(=O)(=O)N1CCN(Cc2cc3nc(-c4cccc5[nH]ncc45)nc(N4CCOCC4)c3s2)CC1 [Pictilisib] (partner 1 µM)
Method in brief: (§1)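 Each reported value is a median over duplicate plates. It expresses relative viability: treated-well nuclei count divided by vehicle-well nuclei count. Lung cancer cell lines in 1536-well plates were dosed by pin tool a day after seeding, alone with one drug or with a fixed anchor-drug dose plus five library-drug doses (not always all listed) in √10 steps, and nuclei were counted after 5 days.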

[2] = compound: Cc1ccc(-n2nc(C(C)(C)C)cc2NC(=O)Nc2ccc(OCCN3CCOCC3)c3ccccc23)cc1 [Doramapimod] + CS(=O)(=O)CCNCc1ccc(-c2ccc3ncnc(Nc4ccc(OCc5cccc(F)c5)c(Cl)c4)c3c2)o1 [Lapatinib] (partner 2 µM)
Method in brief: as §1

[3] = compound: Cn1c(Nc2ccc(C(F)(F)F)cc2)nc2cc(Oc3ccnc(-c4ncc(C(F)(F)F)[nH]4)c3)ccc21 [RAF265] + CC1(C)CCC(c2ccc(Cl)cc2)=C(CN2CCN(c3ccc(C(=O)NS(=O)(=O)c4ccc(N[C@H](CCN5CCOCC5)CSc5ccccc5)c(S(=O)(=O)C(F)(F)F)c4)cc3)CC2)C1 [Navitoclax] (partner 0.5 µM)
Method in brief: as §1

[4] = compound: Cn1c(Nc2ccc(C(F)(F)F)cc2)nc2cc(Oc3ccnc(-c4ncc(C(F)(F)F)[nH]4)c3)ccc21 [RAF265] + C[C@]1(O)C[C@@H](c2nc(-c3ccc4ccc(-c5ccccc5)nc4c3)c3c(N)nccn32)C1 [Linsitinib] (partner 1 µM)
Method in brief: as §1

Row | Cell Line | relative viability ([1]; first compound 0.2 µM) | relative viability ([1]; first compound 0.6325 µM) | relative viability ([1]; first compound 2 µM) | relative viability ([1]; first compound 6.325 µM) | relative viability ([1]; first compound 20 µM) | relative viability ([2]; first compound 0.02 µM) | relative viability ([2]; first compound 0.06325 µM) | relative viability ([2]; first compound 0.2 µM) | relative viability ([2]; first compound 0.6325 µM) | relative viability ([2]; first compound 2 µM) | relative viability ([3]; first compound 0.01 µM) | relative viability ([3]; first compound 0.03162 µM) | relative viability ([3]; first compound 0.1 µM) | relative viability ([3]; first compound 0.3162 µM) | relative viability ([3]; first compound 1 µM) | relative viability ([4]; first compound 0.01 µM) | relative viability ([4]; first compound 0.03162 µM) | relative viability ([4]; first compound 0.1 µM) | relative viability ([4]; first compound 0.3162 µM) | relative viability ([4]; first compound 1 µM)
1 | SK-LU-1 | 0.617 | 0.612 | 0.579 | 0.712 | 0.645 | 0.975 | 0.947 | 0.971 | 0.806 | 0.762 | 1.41 | 0.682 | 0.718 | 0.744 | 0.273 | 1.14 | 0.7 | 0.687 | 0.523 | 0.428
2 | LOU-NH91 | 0.505 | 0.501 | 0.567 | 0.523 | 0.57 | 0.693 | 0.673 | 0.678 | 0.631 | 0.628 | 0.731 | 0.594 | 0.757 | 0.389 | 0.387 | 1.03 | 0.818 | 1.03 | 0.599 | 0.644
3 | LXF-289 | 0.85 | 0.703 | 0.772 | 0.791 | 0.918 | 0.851 | 0.924 | 0.912 | 0.871 | 0.834 | 0.919 | 0.905 | 0.935 | 0.818 | 0.807 | 0.916 | 0.919 | 0.947 | 0.815 | 0.792
4 | NCI-H1299 | 0.905 | 0.858 | 0.834 | 0.654 | 0.687 | 0.991 | 0.952 | 0.956 | 0.972 | 0.925 | 1.03 | 0.988 | 1.06 | 0.989 | 0.738 | 1 | 0.878 | 0.749 | 0.578 | 0.414
5 | HARA | 0.452 | 0.346 | 0.333 | 0.4 | 0.402 | 0.606 | 0.713 | 0.794 | 0.968 | 0.637 | 1.15 | 1.05 | 1.1 | 1.21 | 0.824 | 0.904 | 0.715 | 0.891 | 0.608 | 0.406
6 | LU99A | 0.353 | 0.317 | 0.333 | 0.321 | 0.277 | 0.959 | 1 | 0.981 | 1.1 | 0.897 | 0.703 | 0.688 | 0.613 | 0.514 | 0.325 | 0.471 | 0.423 | 0.323 | 0.308 | 0.273
7 | 201T | 0.748 | 0.684 | 0.671 | 0.714 | 0.809 | 1.05 | 1.11 | 0.955 | 1.11 | 0.971 | 1.23 | 1.2 | 1.23 | 1.27 | 1.28 | 1.04 | 0.982 | 0.994 | 0.89 | 0.885
8 | HCC-827 | 1.05 | 0.976 | 0.951 | 1.19 | 1.05 | 0.2 | 0.272 | 0.17 | 0.352 | 0.201 | 1.06 | 0.987 | 1.08 |  | 0.78 | 0.968 | 0.973 | 0.978 |  | 0.762
9 | NCI-H1666 | 0.541 | 0.521 | 0.445 | 0.403 | 0.541 | 0.814 | 0.702 | 0.654 | 0.637 | 0.68 | 1.01 | 1 | 0.882 | 0.931 | 0.454 | 0.894 | 0.923 | 0.888 | 0.854 | 0.565
10 | NCI-H1915 | 0.956 | 0.987 | 0.903 | 0.966 | 0.933 | 0.973 | 1.1 | 1.01 | 0.995 | 0.844 | 0.76 | 0.72 | 0.712 | 0.407 | 0.281 | 1.1 | 1.01 | 1.03 | 0.653 | 0.323
11 | NCI-H2009 | 0.889 | 0.726 | 0.784 | 0.83 | 0.57 | 0.95 | 0.952 | 1.13 | 0.234 | 0.888 | 1.19 | 1.15 | 1.16 | 1.13 | 0.858 | 1.23 | 1.12 | 1.13 | 1.04 | 0.788
12 | ChaGo-K-1 | 0.728 | 0.785 | 0.663 | 0.824 | 0.824 |  |  |  |  |  | 1.1 | 1 | 1.03 | 1.04 | 0.823 |  |  |  |  | 
13 | COR-L 105 | 0.465 | 0.422 | 0.393 | 0.416 | 0.351 | 0.368 | 0.385 | 0.37 | 0.336 | 0.367 | 0.853 | 0.878 | 0.668 | 0.685 | 0.339 | 1.17 | 0.882 | 0.976 | 0.725 | 0.504
14 | NCI-H2170 | 0.324 | 0.302 | 0.303 | 0.303 | 0.346 | 0.298 | 0.285 | 0.259 | 0.316 | 0.259 | 0.586 | 0.434 | 0.462 | 0.3 | 0.383 |  |  |  |  | 
15 | A549 | 0.607 | 0.445 | 0.713 | 0.483 | 0.696 | 0.827 | 0.989 | 0.932 | 1.24 | 0.895 | 1.31 | 1.19 | 1.06 | 0.669 | 0.624 | 0.61 | 0.536 | 0.648 | 0.273 | 0.249
16 | SW 1573 | 0.593 | 0.503 | 0.6 | 0.479 | 0.61 | 0.982 | 0.939 | 0.897 | 1.04 | 1.2 | 1.23 | 0.984 | 1.04 | 0.89 | 0.389 | 0.767 | 0.744 | 0.796 | 0.612 | 0.508
